What was measured:
[1] = system: H358 cells (NCIH358_LUNG); assay: Anti-proliferation experiment on tumor cells with KRAS mutations, H358 (3D CellTiter-Glo); assay type: cell-based; settings: Homo sapiens, NCI-H358, 120 h, 5 days incubation with compound, ultra-low attachment plate
Description: (§1) Cell culture medium, penicillin/streptomycin antibiotics purchased from Wisent, and fetal bovine serum purchased from Biosera; 3D CellTiter-Glo (chemiluminescence detection reagent for cell viability) reagent purchased from Promega; Cell lines purchased from Nanjing Cobioer Biosciences Co., Ltd. and Wuhan Procell Life Science & Technology Co., Ltd; and Envision multimode microplate reader (PerkinElmer).
(§2) Different types of tumor cells were each seeded in an ultra-low attachment 96-well U-bottom plate, with 80 μL of cell suspension per well. The cell plate was incubated in a CO2 incubator overnight.
(§3) Each test compound was diluted in a 5-fold gradient to the 9th concentration (i.e., from 2 mM to 5.12 nM or from 200 μM to 0.512 nM) using a multi-channel pipette, with duplicate wells set up. 78 μL of medium was added to an intermediate plate, and the serially diluted compound was transferred to the corresponding wells of the intermediate plate at 2 μL/well. The mixture was mixed well and then transferred to the cell plate at 20 µL/well. The concentration of the compound transferred to the cell plate ranged from 10 μM to 0.0256 nM or from 1 μM to 0.00256 nM. The cell plate was then incubated in a CO2 incubator for 3-6 days.
(§4) The chemiluminescence detection reagent for cell viability was added to the cell plate at 100 μL/well, and the luminescence signals were stabilized by incubation for 10 min at room temperature. Readings were taken using the multimode microplate reader.
(§5) The original data were converted to inhibition rates and then the IC50 values were obtained by curve fitting using a four-parameter method (obtained from the “log(inhibitor) vs. response—Variable slope” model in GraphPad Prism). Table 2 illustrates the inhibitory activity of the compounds disclosed herein against the proliferation of different types of tumor cells.

[2] = target: T1, SHP2 (Homo sapiens, UniProt Q06124); assay: SHP2 in-vitro enzymology experiment (Homogeneous Full Length SHP-2 Assay Kit, DiFMUP substrate); assay type: biochemical; settings: 60 min pre-incubation, 30 min reaction at 25° C.
T1 construct: Homogeneous Full Length SHP-2 Assay Kit (purchased from BPS Bioscience); purchased BPS Bioscience
T1 sequence (Q06124 1-593): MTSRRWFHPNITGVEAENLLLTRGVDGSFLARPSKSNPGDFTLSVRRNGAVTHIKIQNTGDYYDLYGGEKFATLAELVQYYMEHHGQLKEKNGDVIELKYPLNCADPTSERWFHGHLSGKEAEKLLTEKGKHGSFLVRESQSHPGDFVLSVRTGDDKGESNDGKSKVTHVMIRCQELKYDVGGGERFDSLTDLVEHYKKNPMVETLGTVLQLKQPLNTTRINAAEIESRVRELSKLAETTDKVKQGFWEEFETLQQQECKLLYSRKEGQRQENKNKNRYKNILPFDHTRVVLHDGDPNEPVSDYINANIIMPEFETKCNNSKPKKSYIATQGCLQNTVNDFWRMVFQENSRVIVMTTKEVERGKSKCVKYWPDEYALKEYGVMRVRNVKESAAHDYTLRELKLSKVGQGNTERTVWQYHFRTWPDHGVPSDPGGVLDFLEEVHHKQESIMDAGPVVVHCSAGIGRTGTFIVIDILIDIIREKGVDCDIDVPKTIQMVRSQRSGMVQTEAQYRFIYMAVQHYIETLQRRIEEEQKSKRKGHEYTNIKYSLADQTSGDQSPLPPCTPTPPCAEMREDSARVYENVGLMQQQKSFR
Experimental: Experimental materials: Homogeneous Full Length SHP-2 Assay Kit (purchased from BPS Bioscience) and NIVO multimode microplate reader.
Preparation of 1× buffer (ready-to-use): 5× buffer was diluted with deionized water to give 1× buffer, which was then placed on ice for later use.
Each test compound was diluted with 100% DMSO to 100 μM as the first concentration, and then diluted in a 4-fold gradient to the 8th concentration (i.e., from 100 μM to 6.1 nM) using a multi-channel pipette. Each gradient of the test compound was diluted with 1× buffer to prepare a working solution with 10% DMSO. The resulting solution was then added to the corresponding wells of a plate at 5 μL/well, with duplicate wells set up. The plate was then centrifuged at 1000 rpm for 1 min.
18 μL of a prepared reaction mixed solution (containing 12.25 μL of deionized water, 5 μL of 5× buffer; 0.25 μL of SHP-2 substrate polypeptide (100 μM), and 0.5 μL of DTT (250 mM)) was added to each well. The plate was then centrifuged at 1000 rpm for 1 min.
An SHP-2 enzyme was diluted to 0.1 ng/μL with 1× buffer. The resulting solution was added to the corresponding wells at 2 μL/well, and 2 μL of 1× buffer and […] were added to each negative control well. This step was performed on ice. The reaction system was then incubated at 25° C. for 60 min for compound pre-incubation.
After the compound pre-incubation was completed, 25 μL of a substrate working solution (containing 19.45 μL of deionized water, 5 μL of 5× buffer; 0.5 μL of DTT (250 mM), and 0.05 μL of SHP-2 Substrate (DiFMUP) (10 mM)) was added to each well, and the reaction system was allowed to react at 25° C. for 30 min. At that time, the final concentration gradient of the compound ranged from 1 μM to 0.061 nM. After the reaction was completed, the fluorescence values were read using the NIVO multimode microplate reader, with an excitation wavelength of 360 nm and an emission wavelength of 460 nm.
Detection of compound background reading values: Each gradient of the test compound diluted with 100% DMSO was added to a new compound plate at 5 μL/well, and then 1× buffer was added at 45 μL/well to achieve a 10-fold dilution to prepare a working solution with 10% DMSO. Next, the compound working solution was added to the detection plate at 5 μL/well, and then 1× buffer was added at 45 μL/well to achieve another 10-fold dilution, bringing the final concentration of DMSO to 1%. The plate was then centrifuged at 1000 rpm for 1 min. The fluorescence values were read using the multimode microplate reader, with an excitation wavelength of 360 nm and an emission wavelength of 460 nm.
The original data were converted to inhibition rates and the IC50 values were obtained by curve fitting using a four-parameter method.

[3] = system: MiaPaCa-2 cells (MIAPACA2_PANCREAS); assay: Anti-proliferation experiment on tumor cells with KRAS mutations, MiaPaCa-2 (3D CellTiter-Glo); assay type: cell-based; settings: Homo sapiens, MIA PaCa-2, 72 h, 3 days incubation with compound, ultra-low attachment plate
Description: as §1, §2, §3, §4, §5

[4] = system: ERK phosphorylation in H358 cells; assay: Inhibitory activity against ERK phosphorylation in H358 cells (HTRF Phospho-ERK1/2 kit); assay type: cell-based; settings: Homo sapiens, NCI-H358; starved H358 cells, 1 h compound incubation; read-out: H358 cell ERK phosphorylation IC50
Experimental: H358 cells purchased from Nanjing Cobioer Biosciences Co., Ltd., 1640 medium purchased from Biological industries, fetal bovine serum purchased from Biosera, and Advanced Phospho-ERK1/2 (THR202/TYR204) KIT purchased from Cisbio.
• 1. H358 cells were plated in a transparent 96-well cell culture plate, with 80 μL of cell suspension per well, each well containing 10000 H358 cells. The cell plate was incubated in a CO2 incubator at 37° C. overnight. • 2. The cell supernatant was discarded, and a starvation medium (1640+0.02% fetal bovine serum+1% […]) was added at 80 μL/well. The cell plate was then incubated in a CO2 incubator for cell starvation treatment overnight; • 3. Each test compound was diluted with 100% DMSO to 4 mM as the first concentration, and then diluted in a 5-fold gradient to the 8th concentration (i.e., from 4 mM to […]) using a pipette. 1 μL of the compound was then added to 79 μL of cell starvation medium. The mixture was mixed well, and then the compound solution was added to the corresponding wells of the cell plate at 20 μL/well. The cell plate was then put back to the CO2 incubator for incubation for another 1 h. At that time, the concentration of the compound ranged from 10 μM to 0.0256 nM, with the concentration of DMSO being 0.25%. • 4. After the incubation was completed, the cell supernatant was discarded, and a cell lysis buffer was added at 50 μL/well. The plate was then incubated with shaking at room temperature for 30 min. 5. The Phospho-ERK1/2 Eu Cryptate antibody and Phospho-ERK1/2 d2 antibody were diluted in a 20-fold gradient with the Detection buffer. • 6. 16 μL of the cell lysate supernatant from each well was transferred to a new 384-well white microplate, and then 2 μL of the Phospho-ERK1/2 Eu Cryptate antibody dilution and 2 μL of the Phospho-ERK1/2 d2 antibody dilution were added to each well. The mixture was incubated at room temperature for 4 h. • 7. After the incubation was completed, HTRF values were read using a multimode microplate reader, with an excitation wavelength of 320 nm and emission wavelengths of 615 nm and 665 nm.
The original data were converted to inhibition rates and then the IC50 values were obtained by curve fitting using a four-parameter method.

IC50 [1] [nM] | IC50 [2] [nM] | IC50 [3] [nM] | IC50 [4] [nM] | SMILES
62.1 | 2.28 | 35 | 55.6 | Cc1nc(N2CCC3(CC2)Cn2nccc2C3N)c(CO)nc1Sc1cccc(Cl)c1Cl (stereo not drawn) [Compound 3]
43.1 | 3.24 | 48.5 | 45.3 | Cc1nc(N2CCC3(CC2)Cn2nccc2C3N)c(C(N)=O)nc1Sc1ccnc(N)c1Cl (stereo not drawn) [Compound 5]
 | 3.99 |  |  | CONc1nccc(Sc2nc(CO)c(N3CCC4(CC3)Cn3nccc3C4N)nc2C)c1Cl (stereo not drawn) [Compound 8]
38.9 | 1.09 | 19.3 |  | Cc1nc(Sc2ccnc(N)c2Cl)cnc1N1CCC2(CC1)Cn1nccc1C2N (stereo not drawn) [Compound 10]

From patent publication US20240409543A1, “PYRROLOPYRAZOLE SPIRO COMPOUND” (CHIA TAI TIANQING PHARMACEUTICAL GROUP CO., LTD., priority 2021, published 2024)
